According to article PMC11922053 (Science Advances, 2025):
Where a SMILES comes first, the peptide text is derived from it. Bridges are numbered along the chain shown (N, C = ends). [ ]: non-standard residue; d: D form. The star is where a group is joined. Biotin = O=C1N[C@H]2[C@H](CS[C@H]2CCCCC(=O)*)N1; 2Nal = N[C@@H](Cc1ccc2ccccc2c1)C(=O)O; Gly(cPent) = N[C@H](C(=O)O)C1CCCC1; Hyp = O=C(O)[C@@H]1C[C@@H](O)CN1; Pen = CC(C)(S)[C@H](N)C(=O)O; Api = NC1(C(=O)O)CCNCC1; Ahx = NCCCCCC(=O)O

Biological target: chymotrypsin (Bos taurus, UniProt P00766)
Assay: Protease stability assay with chymotrypsin
Format: in vitro ADME
Details: NCBP-4 versus CBP; 50:1 by mass, up to 30 min, LC-MS

Question: Which “fold increase in half-life with chymotrypsin relative to CBP” value does the source give for `CC1(C)SSC[C@H](NC(=O)[C@H](Cc2ccccc2)NC(=O)[C@@H](NC(=O)[C@H](Cc2ccccc2)NC(=O)C2(NC(=O)[C@H](Cc3ccc4ccccc4c3)NC(=O)[C@H](CCCCN)NC(=O)CCCCCNC(=O)[C@@H](N)CCCCNC(=O)CCCC[C@@H]3SC[C@@H]4NC(=O)N[C@@H]43)CCNCC2)C2CCCC2)C(=O)N2C[C@H](O)C[C@H]2C(=O)N[C@@H](Cc2ccccc2)C(=O)N[C@@H](Cc2ccc(O)cc2)C(=O)N[C@@H](Cc2ccc(O)cc2)C(=O)N[C@@H](CCCCN)C(=O)N2C[C@H](O)C[C@H]2C(=O)N[C@@H]1C(=O)N[C@@H](CCCCN)C(N)=O` [NCBP-4] (H-K(Biotin)[Ahx]K[2Nal][Api]F[Gly(cPent)]FC[Hyp]FYYK[Hyp][Pen]K-NH2; disulfide 9-16; N-terminus assumed) here?
Answer: 40 fold
